# Experimental data published in patent US11390617B2, “Methods of treating non-Hodgkin lymphoma using 2-(2,6-dioxopiperidin-3-yl)-4-((2-fluoro-4-((3-morpholinoazetidin-1-yl)methyl)benzyl)amino)isoindoline-1,3-dione” (Celgene Corporation, priority 2019, dated 2022).
# Key:
# Experiment in all cases: NHL cell line viability/apoptosis 384-well flow cytometry assay
# Format in all cases: cell-based
# KARPAS-1106P = KARPAS-1106P (DLBCL), 120 hours
# Protocol: (§1) The following exemplary anti-proliferative assay uses exemplary non-Hodgkin lymphoma (NIL) cell lines (including diffuse large B-cell lymphoma (DLBCL), follicular lymphoma (FL), and mantle cell lymphoma (MCL)) (Table 5). The in vitro growth inhibitory activity of Compound 1 described herein was evaluated using a 384-well flow cytometry assay.
# (§2) The cell lines in Table 5 were plated in 384-well flat bottom plates and assessed with increasing concentrations of compound ranging from 0.00015 to 10 μM or dimethyl sulfoxide (DMSO) control. The final concentration of DMSO was 0.1% (v/v). Following the addition of Compound 1 or DMSO and incubation for 120 hours, cell number and cell death were analyzed by flow cytometry (Attune®, Thermo Fisher) using Annexin V and the live-cell impermeant DNA dye, DRAQ7. Phosphatidylserine translocates from the inner layer to the outer layer of the cell membrane early in apoptosis and Annexin V binds to the exposed phosphatidylserine found on the surface of an apoptotic cell. The vital dye DRAQ7 is excluded by intact live cells and only stains cells that have died as a result of apoptosis or necrosis.
# (§3) Flow cytometry data analysis was then performed using the Flow Jo_v10 software to determine the number of viable cells (Annexin V and DRAQ7 double negative staining cells) and percentage of apoptotic cells (Annexin V positive cells) for each condition. The live cell count for every concentration was normalized to the DMSO control (considered as 100%) to calculate the percentage of viable cells remaining after treatment and graphed using GraphPad Prism 7.03. The IC50 (50% inhibitory concentration) and Emax (maximum efficacy achieved) values were then calculated by performing nonlinear regression curve fitting using log(inhibitor) vs. normalized response—variable slope analysis on GraphPad Prism 7.03. Area under the curve (AUC) was calculated by performing area under curve analysis on GraphPad Prism 7.03. Similarly, for apoptosis analysis, the percentage of apoptosis combining both “early” (Annexin V positive and DRAQ7 negative) and “late” apoptosis (Annexin V and DRAQ7 positive) cell gates relative to DMSO was graphed using GraphPad Prism 7.03. The AUC, EC50 (concentration of Compound 1 that produces half-maximal apoptosis response) and Ymax (maximal percentage of apoptosis achieved) values from apoptosis curves were calculated by performing area under curve analysis and nonlinear regression curve fitting using log(agonist) vs. normalized response—Variable slope analysis on GraphPad Prism 7.03.
# (§4) In Table 6, dose-response proliferation curves for the panel of NHL cell lines and non-linear curve-fit regression were used to determine IC50, AUC, and Emax for % viable cells (Emax for viability varies between 100 at low doses and 0 at high doses, which corresponds to inhibition of all viable cells), and dose-response apoptosis curves were used to determine the EC50, AUC, and Ymax for % apoptosis (Ymax for apoptosis varies from 0 at low doses and 100 at higher doses which corresponds to death of all cells). Tumor cells were exposed to serial dilutions (0.00015 to 10 μM) of Compound 1 or dimethyl sulfoxide (DMSO) control for 5 days. Viability and apoptosis for all cell lines was determined by Annexin V/[…] flow cytometry.
# OCI-LY3 = OCI-LY3 (DLBCL), 120 hours
# Protocol: as §1, §2, §3, §4
# RC-K8 = RC-K8 (DLBCL), 120 hours
# Protocol: as §1, §2, §3, §4
# RIVA = RIVA (DLBCL), 120 hours
# Protocol: as §1, §2, §3, §4
# SU-DHL-5 = SU-DHL-5 (DLBCL), 120 hours
# Protocol: as §1, §2, §3, §4
# SU-DHL-6 = SU-DHL-6 (DLBCL), 120 hours
# Protocol: as §1, §2, §3, §4
# U-2904 = U-2904 (DLBCL), 120 hours
# Protocol: as §1, §2, §3, §4
# U-2940 = U-2940 (DLBCL), 120 hours
# Protocol: as §1, §2, §3, §4
# U-2973 = details: U-2973, 120 hours
# Protocol: as §1, §2, §3, §4
# VAL = VAL (DLBCL), 120 hours
# Protocol: as §1, §2, §3, §4
# WILL-1 = WILL-1 (DLBCL), 120 hours
# Protocol: as §1, §2, §3, §4
# WSU-DLCL2 = WSU-DLCL2 (DLBCL), 120 hours
# Protocol: as §1, §2, §3, §4
# [1] = Homo sapiens, read-out: IC50 (% Viable Cells)
# [2] = read-out: IC50 (% Viable Cells)
smiles,measurement,setting,value
"O=C1CC[C@H](N2C(=O)c3cccc(NCc4ccc(CN5CC(N6CCOCC6)C5)cc4F)c3C2=O)C(=O)N1 [Compound 1, (S)-2-(2,6-dioxopiperidin-3-yl)-4-((2-fluoro-4-((3-morpholinoazetidin-1-yl)methyl)benzyl)amino)isoindoline-1,3-dione]",EC50,KARPAS-1106P; Homo sapiens,91.8 nM
same,IC50,KARPAS-1106P; [1],17.5 nM
same,AUC (% Viable Cells),KARPAS-1106P,22.22
same,AUC (Apoptosis),KARPAS-1106P,885.2
same,Emax (% Viable Cells),KARPAS-1106P,0.1698%
same,Ymax (Apoptosis),KARPAS-1106P,97.08%
same,EC50,OCI-LY3; Homo sapiens,0.263 nM
same,IC50,OCI-LY3; [1],≥ 10000 nM
same,AUC (% Viable Cells),OCI-LY3,965.1
same,AUC (Apoptosis),OCI-LY3,24.63
same,Emax (% Viable Cells),OCI-LY3,85.63%
same,Ymax (Apoptosis),OCI-LY3,4.493%
same,EC50,"RC-K8; Homo sapiens, RCK8",74.3 nM
same,IC50,"RC-K8; Homo sapiens, RCK8, read-out: IC50 (% Viable Cells)",3.37 nM
same,AUC (% Viable Cells),RC-K8,115.7
same,AUC (Apoptosis),RC-K8,349.2
same,Emax (% Viable Cells),RC-K8,10.06%
same,Ymax (Apoptosis),RC-K8,26.31%
same,AUC (% Viable Cells),RIVA,452.6
same,AUC (Apoptosis),RIVA,242.8
same,EC50,RIVA,17.7 nM
same,Emax (% Viable Cells),RIVA,36.65%
same,Ymax (Apoptosis),RIVA,27.92%
same,IC50,RIVA; [2],114 nM
same,EC50,SU-DHL-5; Homo sapiens,3.6 nM
same,IC50,SU-DHL-5; [1],2.39 nM
same,AUC (% Viable Cells),SU-DHL-5,1.873
same,AUC (Apoptosis),SU-DHL-5,934.1
same,Emax (% Viable Cells),SU-DHL-5,0.1398%
same,Ymax (Apoptosis),SU-DHL-5,95.23%
same,EC50,SU-DHL-6; Homo sapiens,104 nM
same,IC50,SU-DHL-6; [1],32.5 nM
same,AUC (% Viable Cells),SU-DHL-6,19.94
same,AUC (Apoptosis),SU-DHL-6,920.7
same,Emax (% Viable Cells),SU-DHL-6,0.2469%
same,Ymax (Apoptosis),SU-DHL-6,95.92%
same,AUC (% Viable Cells),U-2904,334.1
same,AUC (Apoptosis),U-2904,456.1
same,EC50,U-2904,3290 nM
same,Emax (% Viable Cells),U-2904,7.609%
same,Ymax (Apoptosis),U-2904,77.39%
same,IC50,U-2904; [2],201 nM
same,EC50,U-2940; Homo sapiens,31.4 nM
same,IC50,U-2940; [1],6.31 nM
same,AUC (% Viable Cells),U-2940,70.43
same,AUC (Apoptosis),U-2940,792.5
same,Emax (% Viable Cells),U-2940,5.192%
same,Ymax (Apoptosis),U-2940,82.19%
same,EC50,U-2973; Homo sapiens,2160 nM
same,IC50,U-2973; [1],6780 nM
same,AUC (% Viable Cells),U-2973,853.4
same,AUC (Apoptosis),U-2973,391.9
same,Emax (% Viable Cells),U-2973,19.45%
same,Ymax (Apoptosis),U-2973,60.8%
same,AUC (% Viable Cells),VAL,14.62
same,AUC (Apoptosis),VAL,936.7
same,EC50,VAL,0.605 nM
same,Emax (% Viable Cells),VAL,0.9632%
same,Ymax (Apoptosis),VAL,95.68%
same,IC50,VAL; [2],0.57 nM
same,AUC (% Viable Cells),WILL-1,233.7
same,AUC (Apoptosis),WILL-1,549.4
same,EC50,WILL-1,2520 nM
same,Emax (% Viable Cells),WILL-1,4.216%
same,Ymax (Apoptosis),WILL-1,79.51%
same,IC50,WILL-1; [2],817 nM
same,EC50,"WSU-DLCL2; Homo sapiens, WSUDLCL2",84.7 nM
same,IC50,"WSU-DLCL2; Homo sapiens, WSUDLCL2, read-out: IC50 (% Viable Cells)",16.9 nM
same,AUC (% Viable Cells),WSU-DLCL2,36.7
same,AUC (Apoptosis),WSU-DLCL2,858.9
same,Emax (% Viable Cells),WSU-DLCL2,1.387%
same,Ymax (Apoptosis),WSU-DLCL2,92.1%
